assay: The inhibition of HCMV replication by digitoxin: The effect of digitoxin analogs on HCMV replication was tested. HFFs were infected with pp28-luciferase HCMV and treated with the compounds (Table 2, FIG. 2A). EC50, CC50 and selectivity index (SI) calculated as CC50/EC50 were determined for each compound. […] The compounds with the best SI were α-L rhamnose, α-L amicetose and mannose. Virus yield was determined for selected compounds (FIG. 2B), and a dose dependent effect on virus DNA yield was observed.

SMILES	EC50
CC1OC(OC2C(O)CC(OC3C(O)CC(O[C@H]4CC[C@@]5(C)[C@H](CC[C@@H]6[C@@H]5CC[C@]5(C)[C@@H](C7=CC(=O)OC7)CC[C@]65O)C4)OC3C)OC2C)CC(OC2OC(C)[C@H](OC3OC(C)[C@@H](O)C(O)[C@@H]3O)C(O)[C@@H]2O)C1C (some centres not stated)	0.0367 µM
CC1OC(OC2C(C)OC(OC3C(O)CC(O[C@H]4CC[C@@]5(C)[C@H](CC[C@@H]6[C@@H]5CC[C@]5(C)[C@@H](C7=CC(=O)OC7)CC[C@]65O)C4)OC3C)C(C)C2O)CC(OC2OC(C)[C@H](OC3OC(C)[C@@H](OC4OC(C)[C@@H](O)C(O)[C@@H]4O)C(O)[C@@H]3O)C(O)[C@@H]2O)C1C (some centres not stated)	0.233 µM
CC1OC(OC2C(O)CC(OC3C(O)CC(O[C@H]4CC[C@@]5(C)[C@H](CC[C@@H]6[C@@H]5CC[C@]5(C)[C@@H](C7=CC(=O)OC7)CC[C@]65O)C4)OC3C)OC2C)CC(OC2OC(C)[C@@H](OC3OC(C)[C@H](O)C[C@H]3O)C[C@H]2O)C1C (some centres not stated)	0.786 µM
CC1OC(OC2C(C)OC(OC3C(O)CC(O[C@H]4CC[C@@]5(C)[C@H](CC[C@@H]6[C@@H]5CC[C@]5(C)[C@@H](C7=CC(=O)OC7)CC[C@]65O)C4)OC3C)C(C)C2O)CC(OC2OC(C)[C@@H](OC3OC(C)[C@H](OC4OC(C)[C@H](O)C(O)[C@H]4O)C(O)[C@H]3O)C(O)[C@H]2O)C1C (some centres not stated)	0.322 µM
CC1OC(OC2C(O)CC(OC3C(O)CC(O[C@H]4CC[C@@]5(C)[C@H](CC[C@@H]6[C@@H]5CC[C@]5(C)[C@@H](C7=CC(=O)OC7)CC[C@]65O)C4)OC3C)OC2C)CC(OC2OC(C)[C@@H](OC3OC(C)[C@H](O)C(O)[C@H]3O)C(O)[C@H]2O)C1C (some centres not stated)	0.21 µM
CC1OC(OC2C(O)CC(OC3C(O)CC(O[C@H]4CC[C@@]5(C)[C@H](CC[C@@H]6[C@@H]5CC[C@]5(C)[C@@H](C7=CC(=O)OC7)CC[C@]65O)C4)OC3C)OC2C)CC(OC2OC(C)[C@H](OC3OC(C)[C@@H](O)C[C@@H]3O)C[C@@H]2O)C1C (some centres not stated)	0.0148 µM
CC1OC(OC2C(O)CC(OC3C(O)CC(O[C@H]4CC[C@@]5(C)[C@H](CC[C@@H]6[C@@H]5CC[C@]5(C)[C@@H](C7=CC(=O)OC7)CC[C@]65O)C4)OC3C)OC2C)CC(OC2OC(C)[C@@H](O)C(O)[C@H]2O)C1C (some centres not stated)	0.0266 µM
CC1OC(OC2C(O)CC(OC3C(O)CC(O[C@H]4CC[C@@]5(C)[C@H](CC[C@@H]6[C@@H]5CC[C@]5(C)[C@@H](C7=CC(=O)OC7)CC[C@]65O)C4)OC3C)OC2C)CC(OC2OC(C)[C@@H](O)C[C@H]2O)C1C (some centres not stated)	0.0375 µM
CC1OC(OC2C(O)CC(OC3C(O)CC(O[C@H]4CC[C@@]5(C)[C@H](CC[C@@H]6[C@@H]5CC[C@]5(C)[C@@H](C7=CC(=O)OC7)CC[C@]65O)C4)OC3C)OC2C)CC(OC2OC(C)[C@H](O)C(O)[C@@H]2O)C1C (some centres not stated)	0.00477 µM
CC1OC(OC2C(C)OC(OC3C(O)CC(O[C@H]4CC[C@@]5(C)[C@H](CC[C@@H]6[C@@H]5CC[C@]5(C)[C@@H](C7=CC(=O)OC7)CC[C@]65O)C4)OC3C)C(C)C2O)CC(OC2OC(C)[C@@H](OC3OC(C)[C@H](OC4OC(C)[C@H](O)C[C@H]4O)C[C@H]3O)C[C@H]2O)C1C (some centres not stated)	2.08 µM
CC1OC(OC2C(C)OC(OC3C(O)CC(O[C@H]4CC[C@@]5(C)[C@H](CC[C@@H]6[C@@H]5CC[C@]5(C)[C@@H](C7=CC(=O)OC7)CC[C@]65O)C4)OC3C)C(C)C2O)CC(OC2OC(C)[C@H](OC3OC(C)[C@@H](OC4OC(C)[C@@H](O)C[C@@H]4O)C[C@@H]3O)C[C@@H]2O)C1C (some centres not stated)	0.113 µM
CC1OC(OC2C(O)CC(OC3C(O)CC(O[C@H]4CC[C@@]5(C)[C@H](CC[C@@H]6[C@@H]5CC[C@]5(C)[C@@H](C7=CC(=O)OC7)CC[C@]65O)C4)OC3C)OC2C)CC(OC2OC(CO)[C@H](O)C(O)[C@@H]2O)C1C (some centres not stated)	0.00731 µM

— ChEMBL document CHEMBL5727610, “Cardiac glycoside analogs and their use in methods for inhibition of viral infection” (2020)
